Data reported in paper PMC8597116 (Clinical Pharmacology in Drug Development, 2021).
Values joined by “and” are separate entries in the source; they are usually repeats but may differ in a detail not shown here. Identical values can stand only once. Like-named read-outs stand apart in the source and are kept apart here. Values belong to the compound of their own block, whether it stands above or below them.

Tests used:
[1] = for MPR AUC0‐t (metabolite‐to‐parent ratio) / MPR AUCinf (metabolite‐to‐parent ratio) / MPR Cmax (metabolite‐to‐parent, 5‐HVLX‐gluc to viloxazine, ratio): adjusted for molecular weights; for AUC0‐t, geometric mean / AUCinf, geometric mean / Cmax, geometric mean: geometric least‐squares mean of log‐transformed values
[2] = Safety monitoring: treatment-related adverse events in healthy adults; type: in vivo, human; conditions: n = 22 per treatment period
[3] = Steady-state plasma pharmacokinetics of paroxetine, healthy adults; type: in vivo, human
CYP2D6 [4] = conditions: read-out: CYP2D6 IC50; cited from earlier work
CYP3A4/5 = conditions: read-out: CYP3A4/5 IC50; two values given; cited from earlier work
clinical = conditions: human, plasma, oral
CYP2C9 = conditions: read-out: CYP2C9 IC50; cited from earlier work
CYP1A2 = conditions: cited from earlier work
CYP2C8 = conditions: read-out: CYP2C8 IC50; cited from earlier work
CYP2C19 = conditions: read-out: CYP2C19 IC50; cited from earlier work
CYP2D6 [5] = conditions: cited from earlier work
CYP2B6 = conditions: read-out: CYP2B6 IC50; cited from earlier work
[6] = Combination (period 3), mean ± SD
[7] = SPN‐812 alone (period 1), 700 mg single dose, plasma, mean ± SD
[8] = SPN‐812 alone (period 1), mean ± SD
[9] = combination versus SPN‐812 alone
[10] = geometric LS mean ratio, period 3/period 1
[11] = paroxetine 20 mg QD coadministration
[12] = day 13, paroxetine 20 mg once daily, mean ± SD

MPR AUC0‐t (metabolite‐to‐parent ratio) [1, 6]: 0.31 ± 0.08 (25.2%) | MPR AUCinf (metabolite‐to‐parent ratio) [1, 6]: 0.31 ± 0.08 (25.1%) | MPR Cmax (metabolite‐to‐parent, 5‐HVLX‐gluc to viloxazine, ratio) [1, 6]: 0.33 ± 0.06 (19.2%) | AUC0‐t, geometric mean ([1]; Combination (period 3)): 60.1 | AUCinf, geometric mean ([1]; Combination (period 3)): 60.3 | Cmax, geometric mean ([1]; Combination (period 3)): 2.8 | AUC0‐t [1, 7]: 70.5 ± 19.6 (27.8%) μg·h/mL | AUCinf [1, 7]: 70.7 ± 19.7 (27.9%) μg·h/mL | Cmax [1, 7]: 3.5 ± 0.8 (24.2%) μg/mL | t1/2 [1, 7]: 5.7 ± 1.7 (29.6%) h | MPR AUC0‐t (metabolite‐to‐parent ratio) [1, 8]: 0.49 ± 0.15 (31.1%) | MPR AUCinf (metabolite‐to‐parent ratio) [1, 8]: 0.48 ± 0.15 (31.5%) | MPR Cmax (metabolite‐to‐parent, 5‐HVLX‐gluc to viloxazine, ratio) [1, 8]: 0.47 ± 0.12 (27.4%) | AUC0‐t, geometric mean ([1]; SPN‐812 alone (period 1)): 67.8 | AUCinf, geometric mean ([1]; SPN‐812 alone (period 1)): 67.9 | Cmax, geometric mean ([1]; SPN‐812 alone (period 1)): 3.4 | delay of median Tmax after the combination compared with SPN‐812 alone [1, 9]: ≈ 3 hour | AUC0‐t ratio, combination/SPN‐812 alone (relative bioavailability) [1, 10]: 88.75% and 88.8% | AUCinf ratio, combination/SPN‐812 alone (relative bioavailability) [1, 10]: 88.77% and 88.8% | Cmax ratio, combination/SPN‐812 alone (relative bioavailability) [1, 10]: 83.05% and 83.1% | decrease in AUC0‐t after the combination versus SPN‐812 alone [1, 11]: 12% | decrease in AUCinf after the combination versus SPN‐812 alone [1, 11]: 12% | decrease in Cmax after the combination versus SPN‐812 alone [1, 11]: 17%
SMILES: CCOc1ccc(O[C@@H]2O[C@H](C(=O)O)[C@@H](O)[C@H](O)[C@H]2O)cc1OCC1CNCCO1 (stereo partly drawn) [5‐HVLX‐gluc, 5‐hydroxyviloxazine glucuronide]

Cavg [3, 12]: 29.6 ± 15.7 ng/mL | Cmin,ss [3, 12]: 22.3 ± 13.4 ng/mL | AUC ([3]; human, plasma, oral, 20 mg): 709 ± 377 ng·h/mL | Cmax ([3]; human, plasma, oral, 20 mg): 39 ± 19 ng/mL | Tmax ([3]; human, plasma, oral, 20 mg): 6 h
SMILES: Fc1ccc([C@@H]2CCNC[C@H]2COc2ccc3c(c2)OCO3)cc1 [Paroxetine, paroxetine]
Abnormal dreams (treatment‐related) [2]: 0 n (%) | Any adverse event (treatment‐related) [2]: 3 (13.6%) n (%) | Decreased appetite (treatment‐related) [2]: 0 n (%) | Diarrhea (treatment‐related) [2]: 3 (13.6%) n (%) | Dysgeusia (treatment‐related) [2]: 0 n (%) | Palpitations (treatment‐related) [2]: 0 n (%) | Somnolence (treatment‐related) [2]: 0 n (%)

half-life (clinical; 700 mg): 5.2 ± 2.3 h | AUC (clinical; AUC0‐t, Combination (period 3): SPN‐812 700 mg + paroxetine 20 mg QD, mean ± SD): 112000 ± 23900 ng·h/mL | change (increase) in AUC / exposure with CYP2D6 inhibition by paroxetine [1, 9]: < 35% | delay of median Tmax after the combination compared with SPN‐812 alone [1, 9]: ≈ 1 hour | increase in AUC0‐t after the combination versus SPN‐812 alone [1, 11]: under 35% | increase in AUCinf after the combination versus SPN‐812 alone [1, 11]: under 35% | increase in Cmax after the combination versus SPN‐812 alone [1, 11]: 16%
SMILES: CCOc1ccccc1OCC1CNCCO1 (stereo not drawn) [Viloxazine, viloxazine]
IC50 (CYP2D6 [4]): 141 µM | IC50 (CYP3A4/5): 221 µM and 352 µM | IC50 (CYP2C9): > 1010 µM | IC50 (CYP1A2; read-out: CYP1A2 reversible inhibition IC50, reversible inhibition): 0.269 µM | IC50 (CYP1A2; read-out: CYP1A2 time‐dependent inhibition IC50, after 30 minute preincubation with nicotinamide adenine dinucleotide phosphate): 0.0436 µM | IC50 (CYP2C8): > 1010 µM | IC50 (CYP2C19): > 1010 µM | share of CYP2D6 in the formation of 5‐hydroxyviloxazine (CYP2D6 [5]): < 50% | IC50 (CYP2B6): 184 µM
